Measured values published in the supplement of paper PMC12592484.

Key:
Assay in all cases: drug sensitivity score (DSS2, normalised partial AUC of dose-response, 72 h CellTiter-Glo viability) (DSS (dimensionless)); higher = more sensitive (stronger growth inhibition / cytotoxicity); extreme values may be limits of the assay
WPMY-1 = tested on: WPMY-1
Outline: (§1)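 The drug sensitivity score reported here is a partial area under the fitted logistic dose–response curve, divided by the log of the curve's upper asymptote and computed in BREEZE; higher values denote greater sensitivity. Low-passage primary prostate cancer-associated fibroblasts, PF179T, WPMY-1, LNCaP and 22Rv1 cells were seeded into 384-well plates preloaded with compounds at five doses across a 10,000-fold range. CellTiter-Glo 2.0 luminescence gave viability at 72 h, scaled to vehicle and positive-control wells.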

LNCAP = tested on: LNCAP
Outline: as §1

CAF#2 = tested on: CAF#2 (primary prostate cancer-associated fibroblasts of iCAF-like type)
Outline: as §1

CAF#6 = tested on: CAF#6 (primary prostate cancer-associated fibroblasts of iCAF-like type)
Outline: as §1

CAF#4 = tested on: CAF#4 (primary prostate cancer-associated fibroblasts of iCAF-like type)
Outline: as §1

CAF#7 = tested on: CAF#7 (primary prostate cancer-associated fibroblasts of myCAF-like type)
Outline: as §1

CAF#1 = tested on: CAF#1 (primary prostate cancer-associated fibroblasts of myCAF-like type)
Outline: as §1

PF179T = tested on: PF179T
Outline: as §1

CAF#3 = tested on: CAF#3 (primary prostate cancer-associated fibroblasts of myCAF-like type)
Outline: as §1

22Rv1 = tested on: 22Rv1
Outline: as §1

CAF#5 = tested on: CAF#5 (primary prostate cancer-associated fibroblasts of myCAF-like type)
Outline: as §1

SMILES | drug sensitivity score (WPMY-1) | drug sensitivity score (LNCAP) | drug sensitivity score (CAF#2) | drug sensitivity score (CAF#6) | drug sensitivity score (CAF#4) | drug sensitivity score (CAF#7) | drug sensitivity score (CAF#1) | drug sensitivity score (PF179T) | drug sensitivity score (CAF#3) | drug sensitivity score (22Rv1) | drug sensitivity score (CAF#5)
CC(C)(O)CNc1nc(Nc2ccnc(C(F)(F)F)c2)nc(-c2cccc(C(F)(F)F)n2)n1 [Enasidenib] (tested concentration range 1-10000 nM) | 0 | 1.2 | 0 | 0 | 0 | 0 | 0 | 0 | 0.4 | 1.7 | 0
COC(=O)N[C@@H](C)CNc1nccc(-c2cn(C(C)C)nc2-c2cc(Cl)cc(NS(C)(=O)=O)c2F)n1 [Encorafenib] (tested concentration range 0.1-1000 nM) | 0 | 2.3 | 0 | 0.9 | 0.5 | 1.3 | 0.6 | 0.6 | 2 | 2.3 | 0.7
C[C@@H]1CN(C(=O)c2ccc(NC(=O)c3cc(O[C@H](C)c4c(Cl)ccc(F)c4Cl)c(N)nn3)cc2)C[C@H](C)N1 [Ensartinib] (tested concentration range 0.1-1000 nM) | 3 | 1.4 | 3.1 | 2.2 | 0.7 | 0.8 | 2.2 | 2.3 | 2.7 | 2.1 | 4.1
Nc1ccccc1NC(=O)c1ccc(CNC(=O)OCc2cccnc2)cc1 [Entinostat] (tested concentration range 1-10000 nM) | 8.5 | 11.6 | 8.5 | 2.2 | 4.8 | 3.5 | 5 | 8.1 | 2.4 | 10.2 | 7.4
CN1CCN(c2ccc(C(=O)Nc3n[nH]c4ccc(Cc5cc(F)cc(F)c5)cc34)c(NC3CCOCC3)c2)CC1 [Entrectinib] (tested concentration range 0.1-1000 nM) | 0.9 | 1 | 1.9 | 0.7 | 0 | 2.1 | 1.3 | 1 | 2.1 | 1.1 | 0.8
CNC(=O)c1ccc(N2C(=S)N(c3ccc(C#N)c(C(F)(F)F)c3)C(=O)C2(C)C)cc1F [Enzalutamide] (tested concentration range 1-10000 nM) | 0 | 2.6 | 2.3 | 0.5 | 2.2 | 0 | 3.9 | 0.4 | 0 | 0 | 2.8
Cn1cc(C2=C(c3cn(C4CCN(Cc5ccccn5)CC4)c4ccccc34)C(=O)NC2=O)c2ccccc21 [Enzastaurin] (tested concentration range 1-10000 nM) | 5.2 | 4.7 | 2.1 | 1.1 | 1.1 | 0 | 0 | 2.3 | 0 | 4.2 | 0
NS(=O)(=O)NCCNc1nonc1/C(=N/O)Nc1ccc(F)c(Br)c1 [Epacadostat] (tested concentration range 1-10000 nM) | 0.2 | 0 | 1.1 | 0 | 2 | 1.1 | 0 | 0.5 | 0 | 0 | 0.9
COc1cccc2c1C(=O)c1c(O)c3c(c(O)c1C2=O)C[C@@](O)(C(=O)CO)C[C@@H]3O[C@H]1C[C@H](N)[C@@H](O)[C@H](C)O1 [Epirubicin] (tested concentration range 0.1-1000 nM) | 9.5 | 15.7 | 6.2 | 7 | 2.8 | 7.9 | 4.8 | 6.7 | 3.7 | 10.1 | 4.4
COCC1(CO)C(=O)C2CCN1CC2 (configuration not stated) [Eprenetapopt] (tested concentration range 1-10000 nM) | 0 | 0 | 0 | 0 | 0 | 0.2 | 0.1 | 0 | 0 | 0 | 0.4
COc1cc(OC)cc(N(CCNC(C)C)c2ccc3ncc(-c4cnn(C)c4)nc3c2)c1 [Erdafitinib] (tested concentration range 0.1-1000 nM) | 0 | 0 | 4.8 | 8 | 8.8 | 15 | 5.9 | 7.2 | 6.2 | 0 | 2.7
C=C1C[C@@H]2CC[C@@]34C[C@H]5O[C@H]6[C@@H](O3)[C@H]3O[C@H](CC[C@@H]3O[C@H]6[C@H]5O4)CC(=O)C[C@@H]3[C@@H](OC)[C@@H](C[C@H](O)CN)O[C@H]3C[C@H]3O[C@@H](CC[C@@H]1O2)C[C@@H](C)C3=C [Eribulin] (tested concentration range 0.1-1000 nM) | 28.9 | 36.5 | 18.3 | 15.3 | 9.6 | 22.1 | 12.3 | 19.4 | 11.8 | 24 | 13.7
C#Cc1cccc(Nc2ncnc3cc(OCCOC)c(OCCOC)cc23)c1 [Erlotinib] (tested concentration range 1-10000 nM) | 0.5 | 4 | 3.7 | 0.2 | 4.8 | 1.1 | 3.7 | 1.4 | 1.2 | 1.4 | 4.8
COc1cc([C@@H]2c3cc4c(cc3[C@@H](O[C@@H]3O[C@@H]5CO[C@@H](C)O[C@H]5[C@H](O)[C@H]3O)[C@H]3COC(=O)[C@H]23)OCO4)cc(OC)c1O [Etoposide] (tested concentration range 1-10000 nM) | 9 | 9.9 | 5.9 | 2.8 | 0.9 | 5.1 | 2.3 | 5.8 | 2.6 | 10.1 | 3
CO[C@H]1C[C@@H]2CC[C@@H](C)[C@@](O)(O2)C(=O)C(=O)N2CCCC[C@H]2C(=O)O[C@H]([C@H](C)C[C@@H]2CC[C@@H](OCCO)[C@H](OC)C2)CC(=O)[C@H](C)/C=C(\C)[C@@H](O)[C@@H](OC)C(=O)[C@H](C)C[C@H](C)/C=C/C=C/C=C/1C [Everolimus] (tested concentration range 0-100 nM) | 5.4 | 14.1 | 8.2 | 8.2 | 6.1 | 10.8 | 11.5 | 6.3 | 7.2 | 11.6 | 9.7
C=C1C[C@@H]2[C@H](CC[C@]3(C)C(=O)CC[C@@H]23)[C@@]2(C)C=CC(=O)C=C12 [Exemestane] (tested concentration range 1-10000 nM) | 0 | 2.5 | 0 | 0 | 0 | 0 | 0 | 0 | 0.7 | 0 | 0
CCn1c(=O)c(-c2ccc(Cl)cc2Cl)cc2cnc(Nc3ccc(N4CCNCC4)c(F)c3)nc21 [FRAX486] (tested concentration range 0.5-5000 nM) | 8.6 | 6.3 | 14.7 | 9 | 9.7 | 8.9 | 12.2 | 12.4 | 9.1 | 1.1 | 11.4
Cc1cnc(Nc2ccc(OCCN3CCCC3)cc2)nc1Nc1cccc(S(=O)(=O)NC(C)(C)C)c1 [Fedratinib] (tested concentration range 1-10000 nM) | 7.2 | 8 | 5 | 8 | 4.6 | 9.6 | 3.9 | 7.7 | 9.7 | 9.5 | 5.2
CON(C)C(=O)N1N=C(c2cc(F)ccc2F)S[C@@]1(CCCN)c1ccccc1 [Filanesib] (tested concentration range 0.1-1000 nM) | 22 | 29.5 | 17.7 | 2.6 | 6 | 2.6 | 0.2 | 13 | 3.2 | 21.3 | 3.9
O=C(Nc1nc2cccc(-c3ccc(CN4CCS(=O)(=O)CC4)cc3)n2n1)C1CC1 [Filgotinib] (tested concentration range 1-10000 nM) | 2.1 | 3.8 | 2.3 | 0.1 | 0 | 0.6 | 2.1 | 0.9 | 1.7 | 2.5 | 1.9
CC(C)(C)NC(=O)[C@H]1CC[C@H]2[C@@H]3CC[C@H]4NC(=O)C=C[C@]4(C)[C@H]3CC[C@]12C [Finasteride] (tested concentration range 1-10000 nM) | 0 | 2.8 | 0 | 0 | 0 | 0 | 0 | 0 | 0.5 | 0 | 0
CCCCCCCCc1ccc(CCC(N)(CO)CO)cc1 [Fingolimod] (tested concentration range 1-10000 nM) | 6.7 | 7.9 | 5.3 | 5.9 | 6 | 6.3 | 5.4 | 5.1 | 5.2 | 7 | 6.8
